According to the supplement of paper PMC13207355:

Tests used:
Details in all cases: exposure time: 72 h
[1] = test system: E21 (patient-derived glioblastoma stem cells of mesenchymal subtype); assay: surviving fraction (nuclei count normalised to DMSO); higher = more cells surviving (less toxic)
[2] = test system: E28 (patient-derived glioblastoma stem cells of classical subtype); assay: as above
[3] = test system: E34 (patient-derived glioblastoma stem cells of proneural subtype); assay: as above
[4] = test system: FT3469 (normal neural stem cell line); assay: as above
[5] = test system: E13 (patient-derived glioblastoma stem cells of classical subtype); assay: as above
[6] = test system: E57 (patient-derived glioblastoma stem cells of mesenchymal subtype); assay: as above
[7] = test system: E31 (patient-derived glioblastoma stem cells of proneural subtype); assay: as above
[8] = test system: E21; assay: phenotypic distance (Euclidean, principal components) from DMSO controls (arbitrary units); higher = stronger morphological change
[9] = test system: E28; assay: as above
[10] = test system: E34; assay: as above
[11] = test system: FT3469; assay: as above
[12] = test system: E13; assay: as above
[13] = test system: E57; assay: as above
[14] = test system: E31; assay: as above
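For phenotypic distance (Euclidean, principal components) from DMSO controls in this document: cell Painting imaging in 384-well plates, CellProfiler features reduced to at least 20 principal components, Euclidean distance versus same-plate DMSO vehicle wells (0.1% v/v), median over six images per well.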
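For surviving fraction (nuclei count normalised to DMSO) in this document: nuclei counted by high-content imaging of Hoechst-stained cells in laminin-coated 384-well plates, relative to 0.1% DMSO vehicle wells, with staurosporine as cell-death control.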

With `NCCCP(=O)(O)O` [3-Aminopropylphosphonic acid] the surviving fraction ([1]; 4.1 nM) was 0.806, the surviving fraction ([1]; 12.3 nM) was 0.98 and the surviving fraction ([1]; 37 nM) was 0.902. For the same compound, the surviving fraction ([1]; 111.1 nM) was 0.886, the surviving fraction ([1]; 333.3 nM) was 1.08 and the surviving fraction ([1]; 1000 nM) was 1. For the same compound, the surviving fraction ([1]; 3000 nM) was 0.86, the surviving fraction ([2]; 4.1 nM) was 0.762 and the surviving fraction ([2]; 12.3 nM) was 0.907. It also gave a surviving fraction ([2]; 37 nM) of 0.775, a surviving fraction ([2]; 111.1 nM) of 0.984 and a surviving fraction ([2]; 333.3 nM) of 0.931. The surviving fraction ([2]; 1000 nM) was 0.888, the surviving fraction ([2]; 3000 nM) was 0.713 and the surviving fraction ([3]; 4.1 nM) was 0.923. For the same compound, the surviving fraction ([3]; 12.3 nM) was 1.06, the surviving fraction ([3]; 37 nM) was 0.998 and the surviving fraction ([3]; 111.1 nM) was 1.09. The surviving fraction ([3]; 333.3 nM) was 1.08, the surviving fraction ([3]; 1000 nM) was 1.05 and the surviving fraction ([3]; 3000 nM) was 1.05. The surviving fraction ([4]; 4.1 nM) was 0.65, the surviving fraction ([4]; 12.3 nM) was 0.955 and the surviving fraction ([4]; 37 nM) was 0.892. The surviving fraction ([4]; 111.1 nM) was 0.941, the surviving fraction ([4]; 333.3 nM) was 1.09 and the surviving fraction ([4]; 1000 nM) was 1.08. It also gave a surviving fraction ([4]; 3000 nM) of 1.06, a surviving fraction ([5]; 4.1 nM) of 0.801 and a surviving fraction ([5]; 12.3 nM) of 0.888. The surviving fraction ([5]; 37 nM) was 1, the surviving fraction ([5]; 111.1 nM) was 0.872 and the surviving fraction ([5]; 333.3 nM) was 0.982. The surviving fraction ([5]; 1000 nM) was 0.884, the surviving fraction ([5]; 3000 nM) was 0.962 and the surviving fraction ([6]; 4.1 nM) was 0.924. The surviving fraction ([6]; 12.3 nM) was 0.912, the surviving fraction ([6]; 37 nM) was 1.01 and the surviving fraction ([6]; 111.1 nM) was 1.06. It also gave a surviving fraction ([6]; 333.3 nM) of 0.959, a surviving fraction ([6]; 1000 nM) of 0.941 and a surviving fraction ([6]; 3000 nM) of 1.07. The surviving fraction ([7]; 4.1 nM) was 1.14, the surviving fraction ([7]; 12.3 nM) was 0.932 and the surviving fraction ([7]; 37 nM) was 1. The surviving fraction ([7]; 111.1 nM) was 0.983, the surviving fraction ([7]; 333.3 nM) was 1.05 and the surviving fraction ([7]; 1000 nM) was 0.771. For the same compound, the surviving fraction ([7]; 3000 nM) was 0.945, the phenotypic distance ([8]; 4.1 nM) was 1.29 and the phenotypic distance ([8]; 12.3 nM) was 5.29. For the same compound, the phenotypic distance ([8]; 37 nM) was 0.988, the phenotypic distance ([8]; 111.1 nM) was 1.15 and the phenotypic distance ([8]; 333.3 nM) was 1.08. It also gave a phenotypic distance ([8]; 1000 nM) of 0.704, a phenotypic distance ([8]; 3000 nM) of 0.925 and a phenotypic distance ([9]; 4.1 nM) of 0.627. It also gave a phenotypic distance ([9]; 12.3 nM) of 0.887, a phenotypic distance ([9]; 37 nM) of 1.05 and a phenotypic distance ([9]; 111.1 nM) of 0.933. It also gave a phenotypic distance ([9]; 333.3 nM) of 1.07, a phenotypic distance ([9]; 1000 nM) of 0.732 and a phenotypic distance ([9]; 3000 nM) of 1.53. It also gave a phenotypic distance ([10]; 4.1 nM) of 0.981, a phenotypic distance ([10]; 12.3 nM) of 3.38 and a phenotypic distance ([10]; 37 nM) of 1.08. The phenotypic distance ([10]; 111.1 nM) was 0.945, the phenotypic distance ([10]; 333.3 nM) was 0.527 and the phenotypic distance ([10]; 1000 nM) was 4.28. For the same compound, the phenotypic distance ([10]; 3000 nM) was 0.559, the phenotypic distance ([11]; 4.1 nM) was 1.45 and the phenotypic distance ([11]; 12.3 nM) was 0.83. For the same compound, the phenotypic distance ([11]; 37 nM) was 0.983, the phenotypic distance ([11]; 111.1 nM) was 0.685 and the phenotypic distance ([11]; 333.3 nM) was 0.68. It also gave a phenotypic distance ([11]; 1000 nM) of 0.784, a phenotypic distance ([11]; 3000 nM) of 2.45 and a phenotypic distance ([12]; 4.1 nM) of 0.873. It also gave a phenotypic distance ([12]; 12.3 nM) of 0.485, a phenotypic distance ([12]; 37 nM) of 1.1 and a phenotypic distance ([12]; 111.1 nM) of 0.795. It also gave a phenotypic distance ([12]; 333.3 nM) of 1.09, a phenotypic distance ([12]; 1000 nM) of 0.46 and a phenotypic distance ([12]; 3000 nM) of 0.816. The phenotypic distance ([13]; 4.1 nM) was 1.04, the phenotypic distance ([13]; 12.3 nM) was 0.788 and the phenotypic distance ([13]; 37 nM) was 0.764. For the same compound, the phenotypic distance ([13]; 111.1 nM) was 0.744, the phenotypic distance ([13]; 333.3 nM) was 0.772 and the phenotypic distance ([13]; 1000 nM) was 1.04. The phenotypic distance ([13]; 3000 nM) was 1.21, the phenotypic distance ([14]; 4.1 nM) was 0.65 and the phenotypic distance ([14]; 12.3 nM) was 0.816. For the same compound, the phenotypic distance ([14]; 37 nM) was 0.948, the phenotypic distance ([14]; 111.1 nM) was 0.488 and the phenotypic distance ([14]; 333.3 nM) was 0.824. It also gave a phenotypic distance ([14]; 1000 nM) of 0.792 and a phenotypic distance ([14]; 3000 nM) of 0.929.
